Results: ChEMBL document CHEMBL5576083, “Structure-Based Design and Synthesis of Covalent Inhibitors for Deubiquitinase and Acetyltransferase ChlaDUB1 of Chlamydia trachomatis” (J Med Chem, 2024)
In brackets after ≈: the same amount, converted by molar mass. Activity calls are given as the source filed them. No cut-off for these calls is given here.

How the values were obtained:
Chlamydia trachomatis [1] = test: Anti-chlamydial activity against Chlamydia trachomatis serovar L2 infected in human HEp-2 cells assessed as inhibition of chlamydial inclusion incubated for 24 hrs by Alexa488/DAPI staining based immunofluorescence assay; format: functional, organism-based; conditions: serovar L2, HEp-2, 24 h
[2] = target: T1, OTU domain-containing protein 3 (Homo sapiens) (UniProt Q5T2D3); test: Inhibition of GST-tagged human OTUD3 using Ub-Rh110Gly as fluorogenic substrate at 40 uM preincubated for 1 hr followed by substrate addition by plate reader analysis
T1 sequence (whole entry): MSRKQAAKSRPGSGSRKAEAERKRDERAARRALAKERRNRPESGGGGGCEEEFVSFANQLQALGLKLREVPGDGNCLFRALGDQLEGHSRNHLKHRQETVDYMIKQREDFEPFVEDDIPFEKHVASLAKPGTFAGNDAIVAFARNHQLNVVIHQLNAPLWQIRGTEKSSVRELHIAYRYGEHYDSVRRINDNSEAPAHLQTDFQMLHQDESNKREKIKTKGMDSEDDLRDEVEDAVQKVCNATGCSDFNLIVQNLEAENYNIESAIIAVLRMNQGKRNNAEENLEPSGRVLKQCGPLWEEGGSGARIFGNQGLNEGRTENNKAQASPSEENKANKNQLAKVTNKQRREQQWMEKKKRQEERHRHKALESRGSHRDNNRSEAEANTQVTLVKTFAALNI

[3] = target: T2, Ubiquitin thioesterase OTU1 (Homo sapiens) (UniProt Q5VVQ6); test: Inhibition of GST-tagged human OTUD2 using Ub-AMC as substrate at 40 uM preincubated for 1 hr followed by substrate addition by plate reader analysis
T2 sequence (whole entry): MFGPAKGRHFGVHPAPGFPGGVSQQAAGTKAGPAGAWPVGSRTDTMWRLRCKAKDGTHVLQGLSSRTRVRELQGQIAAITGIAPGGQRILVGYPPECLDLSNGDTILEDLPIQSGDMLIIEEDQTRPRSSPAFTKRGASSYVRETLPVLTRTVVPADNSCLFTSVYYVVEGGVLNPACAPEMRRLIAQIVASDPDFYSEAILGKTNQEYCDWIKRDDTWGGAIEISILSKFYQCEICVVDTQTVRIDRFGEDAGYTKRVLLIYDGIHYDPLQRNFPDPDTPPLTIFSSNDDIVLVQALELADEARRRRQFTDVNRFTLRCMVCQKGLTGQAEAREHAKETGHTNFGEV

[4] = target: T3, Ubiquitin carboxyl-terminal hydrolase isozyme L3 (Homo sapiens) (UniProt P15374); test: Inhibition of GST-tagged human UCHL3 using Ub-Rh110Gly as fluorogenic substrate at 40 uM preincubated for 1 hr followed by substrate addition by plate reader analysis
T3 sequence (whole entry): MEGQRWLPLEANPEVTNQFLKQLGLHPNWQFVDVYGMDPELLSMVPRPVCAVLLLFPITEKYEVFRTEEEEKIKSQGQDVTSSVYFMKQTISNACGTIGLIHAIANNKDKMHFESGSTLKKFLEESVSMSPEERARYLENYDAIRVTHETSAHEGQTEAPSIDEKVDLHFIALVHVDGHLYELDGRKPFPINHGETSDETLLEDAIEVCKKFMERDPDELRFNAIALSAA

Chlamydia trachomatis [5] = test: Anti-chlamydial activity against Chlamydia trachomatis serovar L2 infected in human HEp-2 cells assessed as fold change in inhibition of chlamydial inclusion incubated for 24 hrs by Alexa488/DAPI staining based immunofluorescence assay relative to doxycycline; format: functional
HeLa = test: Cytotoxicity against human HeLa cells at 128 ug/ml incubated for 20 hrs by […] assay; format: functional, cell-based; conditions: dose 128.0 µg/ml
Chlamydia trachomatis [6] = test: Antimicrobial activity against Chlamydia trachomatis serovar L2 infected in human HeLa cells assessed as inclusion forming unit at 12.5 ug/ml measured at 24 to 48 hrs of post-infection by immunofluorescence based microscopic analysis; format: functional; conditions: dose 12.5 µg/ml; time 24-48 hrs
Chlamydia trachomatis [7] = test: Antimicrobial activity against Chlamydia trachomatis serovar L2 infected in human HeLa cells assessed as reduction in inclusion forming unit at 12.5 ug/ml measured after 8 hrs of post-infection by immunofluorescence based microscopic analysis; format: functional, organism-based; conditions: dose 12.5 µg/ml
Chlamydia trachomatis [8] = test: Antimicrobial activity against Chlamydia trachomatis serovar L2 infected in human HEp-2 cells assessed as fold change in inclusion forming unit at 1.56 to 12.5 ug/ml measured at 8 to 48 hrs of post-infection by immunofluorescence based microscopic analysis; format: functional; conditions: dose 1.56-12.5 µg/ml; time 8-48 hrs
Chlamydia trachomatis [9] = test: Antimicrobial activity against Chlamydia trachomatis serovar L2 infected in human HeLa cells assessed as reduction in inclusion area at 6.25 ug/ml measured after 24 hrs of post-infection by microscopic analysis; format: functional; conditions: dose 6.25 µg/ml
Chlamydia trachomatis [10] = test: Antimicrobial activity against Chlamydia trachomatis serovar L2 infected in human HeLa cells assessed as reduction in inclusion area at 3.13 ug/ml measured after 24 hrs of post-infection by microscopic analysis; format: functional; conditions: dose 3.13 µg/ml
Chlamydia trachomatis [11] = test: Antimicrobial activity against Chlamydia trachomatis serovar L2 infected in human HeLa cells assessed as reduction in inclusion circumference at 12.5 ug/ml measured after 24 hrs of post-infection by microscopic analysis (reference value: 31.72 micrometer); format: functional; conditions: dose 12.5 µg/ml
Chlamydia trachomatis [12] = test: Antimicrobial activity against Chlamydia trachomatis serovar L2 infected in human HeLa cells assessed as reduction in inclusion circumference at 6.25 ug/ml measured after 24 hrs of post-infection by microscopic analysis (reference value: 31.72 micrometer); format: functional; conditions: dose 6.25 µg/ml
Chlamydia trachomatis [13] = test: Antimicrobial activity against Chlamydia trachomatis serovar L2 infected in human HeLa cells assessed as reduction in inclusion circumference at 3.13 ug/ml measured after 24 hrs of post-infection by microscopic analysis (reference value: 31.72 micrometer); format: functional; conditions: dose 3.13 µg/ml
Chlamydia trachomatis [14] = test: Antimicrobial activity against Chlamydia trachomatis serovar L2 infected in human HeLa cells assessed as change in inclusion morphology at 1.56 to 12.5 ug/ml measured after 24 hrs of post-infection by immunofluorescence based microscopic analysis; format: functional, organism-based; conditions: dose 1.56-12.5 µg/ml
Chlamydia trachomatis [15] = test: Antimicrobial activity against Chlamydia trachomatis serovar L2 infected in human HeLa cells assessed as reduction in microbial progeny at 6.25 ug/ml measured after 24 hrs of post-infection by immunofluorescence analysis; format: functional; design: scale not given: the % may be the effect or the level left; conditions: dose 6.25 µg/ml
Chlamydia trachomatis [16] = test: Antimicrobial activity against Chlamydia trachomatis serovar L2 infected in human HeLa cells assessed as reduction in microbial progeny at 1.56 ug/ml measured after 24 hrs of post-infection by immunofluorescence analysis; format: functional; conditions: dose 1.56 µg/ml
Chlamydia trachomatis [17] = test: Antimicrobial activity against Chlamydia trachomatis serovar L2 infected in human HeLa cells assessed as reduction in microbial progeny at 12.5 ug/ml measured after 48 hrs of post-infection by immunofluorescence analysis; format: functional; design: scale not given: the % may be the effect or the level left; conditions: dose 12.5 µg/ml
Chlamydia trachomatis [18] = test: Antimicrobial activity against Chlamydia trachomatis serovar L2 infected in human HeLa cells assessed as reduction in microbial progeny at 6.25 ug/ml measured after 48 hrs of post-infection by immunofluorescence analysis; format: functional; design: scale not given: the % may be the effect or the level left; conditions: dose 6.25 µg/ml
Chlamydia trachomatis [19] = test: Antimicrobial activity against Chlamydia trachomatis serovar L2 infected in human HeLa cells assessed as reduction in inclusion area at 1.56 ug/ml measured after 24 hrs of post-infection by microscopic analysis; format: functional; conditions: dose 1.56 µg/ml
[20] = Solubility of compound in PBS incubated overnight by shake-flask based HPLC analysis; format: physicochemical

- IC50 (Chlamydia trachomatis [1]): 8.52 µg/mL (≈ 20.5 µM)
- inhibition [2]: inactive
- inhibition [3]: inactive
- inhibition [4]: inactive
- solubility thermodynamic [20]: 308 µM (≈ 128 µg/mL)
SMILES: N#Cc1ncc(C(=O)NCc2ccc(C(=O)NC34CC5CC(CC(C5)C3)C4)cc2)cn1
- fold change (FC) (Chlamydia trachomatis [5]): 200
- Activity (HeLa): inactive
- Activity (Chlamydia trachomatis [6]): 3.7 10^6IFU/ml
- Activity (Chlamydia trachomatis [7]): Active
- fold change (FC) (Chlamydia trachomatis [8]): 2
- Activity (Chlamydia trachomatis [9]): 47.16 um2
- Activity (Chlamydia trachomatis [10]): 49.99 um2
- Activity (Chlamydia trachomatis [11]): 14.75 um
- Activity (Chlamydia trachomatis [12]): 25.98 um
- Activity (Chlamydia trachomatis [13]): 27.26 um
- Activity (Chlamydia trachomatis [14]): inactive
- Activity (Chlamydia trachomatis [15]): 66.5%
- Activity (Chlamydia trachomatis [16]): inactive
- Activity (Chlamydia trachomatis [17]): 98.5%
- Activity (Chlamydia trachomatis [18]): 41%
- Activity (Chlamydia trachomatis [19]): 70.68 um2
